From patent US20210046106A1, “METHODS OF TREATING CANCER WITH ANDROGEN DEPRIVATION THERAPY IN COMBINATION WITH AN INHIBITOR OF THE SP1 TRANSCRIPTION FACTOR” (The Board of Trustees of the Leland Stanford Junior …, priority 2019, published 2021)

Test system: AR and PSA
Assay: NAC pretreatment and down-regulation of AR and PSA in LAPC-4 cells
Type: cell-based
Details: 10 mmol/L NAC 24 h pretreatment

SMILES: CC(=O)N[C@@H](CS)C(=O)O [NAC, N-acetylcysteine]
- effect of NAC on methylseleninic acid (MSeA)-induced down-regulation of the AR and PSA (then 10 μmol/L MSeA 24 h): does not inhibit
- effect of NAC on selenite-induced down-regulation of the AR and PSA (then selenite 24 h): inhibits
